Experimental data taken from ChEMBL document CHEMBL5532672, “Discovery of 2-Ethoxy-5-isobutyramido-N-1-substituted Benzamide Derivatives as Selective Kv2.1 Inhibitors with In Vivo Neuroprotective Effects” (J Med Chem, 2024).
Each block holds one compound with its values, some of them ahead of it.

How the values were obtained:
HEK293 [1] = test: cells; conditions: Homo sapiens, HEK293, read-out: Activity; at 10 mM
Description: Anti-apoptotic activity in HEK293 cells harbouring Kv2.1 assessed as viable cells at 10 mM by annexin-V and propidium staining based flow cytometry analysis (Rvb = 99.8% )

[2] = Cmax in Sprague-Dawley rat at 0.5 mg/kg, iv measured upto 24 hrs by LC/MS/MS analysis; format: ADME, organism-based; conditions: in vivo
[3] = Plasma concentration in rat at 1 mg/kg, iv measured after 15 mins; format: ADME, organism-based
[4] = MRT (0 to infinity) in Sprague-Dawley rat at 5 mg/kg, po measured upto 24 hrs by LC/MS/MS analysis; format: ADME, organism-based; conditions: in vivo
[5] = Tmax in Sprague-Dawley rat at 5 mg/kg, po measured upto 24 hrs by LC/MS/MS analysis; format: ADME, organism-based; conditions: in vivo
[6] = Brain concentration in rat at 1 mg/kg, iv measured after 15 mins; format: ADME, organism-based; conditions: read-out: Ct
[7] = Clearance in Sprague-Dawley rat at 0.5 mg/kg, iv measured upto 24 hrs by LC/MS/MS analysis; format: ADME, organism-based; conditions: in vivo
[8] = target: Voltage-gated inwardly rectifying potassium channel KCNH2 (Homo sapiens, UniProt Q12809); test: Inhibition of human ERG by whole cell patch-clamp assay; format: toxicity
Sequence of Voltage-gated inwardly rectifying potassium channel KCNH2 (Q12809 whole entry): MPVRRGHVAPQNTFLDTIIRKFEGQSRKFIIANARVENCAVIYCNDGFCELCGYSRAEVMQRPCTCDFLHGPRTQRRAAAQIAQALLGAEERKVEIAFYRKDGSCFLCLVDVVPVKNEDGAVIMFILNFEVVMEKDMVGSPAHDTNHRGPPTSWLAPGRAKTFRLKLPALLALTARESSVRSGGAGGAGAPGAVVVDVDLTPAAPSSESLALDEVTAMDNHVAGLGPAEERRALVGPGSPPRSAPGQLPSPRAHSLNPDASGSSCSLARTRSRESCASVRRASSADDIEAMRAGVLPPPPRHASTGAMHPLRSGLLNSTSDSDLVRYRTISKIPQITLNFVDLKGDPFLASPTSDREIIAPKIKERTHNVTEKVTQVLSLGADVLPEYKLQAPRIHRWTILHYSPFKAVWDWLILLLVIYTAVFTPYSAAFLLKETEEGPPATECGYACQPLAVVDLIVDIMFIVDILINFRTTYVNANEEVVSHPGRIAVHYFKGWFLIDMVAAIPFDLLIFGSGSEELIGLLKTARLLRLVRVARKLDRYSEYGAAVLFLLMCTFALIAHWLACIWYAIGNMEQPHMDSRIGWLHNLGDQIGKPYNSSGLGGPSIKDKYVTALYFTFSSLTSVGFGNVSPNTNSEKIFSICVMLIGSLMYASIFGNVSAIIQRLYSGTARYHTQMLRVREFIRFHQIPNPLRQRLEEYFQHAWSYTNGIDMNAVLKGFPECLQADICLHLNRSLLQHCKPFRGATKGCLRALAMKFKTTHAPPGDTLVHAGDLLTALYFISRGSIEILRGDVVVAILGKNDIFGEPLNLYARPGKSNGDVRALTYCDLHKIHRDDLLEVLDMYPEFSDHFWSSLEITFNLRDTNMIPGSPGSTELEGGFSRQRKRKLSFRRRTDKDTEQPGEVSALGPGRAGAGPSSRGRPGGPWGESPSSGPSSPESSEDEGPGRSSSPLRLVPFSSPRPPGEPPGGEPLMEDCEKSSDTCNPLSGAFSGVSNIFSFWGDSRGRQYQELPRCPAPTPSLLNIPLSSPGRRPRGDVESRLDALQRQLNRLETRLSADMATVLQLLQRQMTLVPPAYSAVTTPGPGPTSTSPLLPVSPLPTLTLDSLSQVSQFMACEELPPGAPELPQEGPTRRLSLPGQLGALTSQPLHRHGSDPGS

[9] = AUC (0 to infinity) in Sprague-Dawley rat at 5 mg/kg, po measured upto 24 hrs by LC/MS/MS analysis; format: ADME, organism-based; conditions: in vivo
[10] = MRT (0 to t) in Sprague-Dawley rat at 5 mg/kg, po measured upto 24 hrs by LC/MS/MS analysis; format: ADME, organism-based; conditions: in vivo
[11] = Apparent volume of distribution in Sprague-Dawley rat at […], iv measured upto 24 hrs by LC/MS/MS analysis; format: ADME, organism-based; conditions: in vivo, read-out: Vz
HEK293 [12] = test: Anti-apoptotic activity in HEK293 cells harbouring Kv2.1 assessed as viable cells at 3 uM by annexin-V and propidium staining based flow cytometry analysis (reference value: 99.8%); format: functional; conditions: Homo sapiens, read-out: Activity
[13] = Plasma concentration in rat at 1 mg/kg, iv measured after 30 mins; format: ADME, organism-based
[14] = AUC (0 to t) in Sprague-Dawley rat at 0.5 mg/kg, iv measured upto 24 hrs by LC/MS/MS analysis; format: ADME, organism-based; conditions: in vivo
[15] = Brain concentration in rat at 5 mg/kg, po measured after 30 mins; format: ADME, organism-based; conditions: read-out: Ct
[16] = Terminal elimination half life in Sprague-Dawley rat at 0.5 mg/kg, iv measured upto 24 hrs by LC/MS/MS analysis; format: ADME, organism-based; conditions: in vivo, read-out: beta t1/2 (converted)
[17] = MRT (0 to infinity) in Sprague-Dawley rat at 0.5 mg/kg, iv measured upto 24 hrs by LC/MS/MS analysis; format: ADME, organism-based; conditions: in vivo
[18] = target: Potassium voltage-gated channel subfamily A member 5 (Homo sapiens, UniProt P22460); test: Inhibition of KV1.5 (unknown origin) by whole cell patch-clamp assay
Sequence of Potassium voltage-gated channel subfamily A member 5 (P22460 whole entry): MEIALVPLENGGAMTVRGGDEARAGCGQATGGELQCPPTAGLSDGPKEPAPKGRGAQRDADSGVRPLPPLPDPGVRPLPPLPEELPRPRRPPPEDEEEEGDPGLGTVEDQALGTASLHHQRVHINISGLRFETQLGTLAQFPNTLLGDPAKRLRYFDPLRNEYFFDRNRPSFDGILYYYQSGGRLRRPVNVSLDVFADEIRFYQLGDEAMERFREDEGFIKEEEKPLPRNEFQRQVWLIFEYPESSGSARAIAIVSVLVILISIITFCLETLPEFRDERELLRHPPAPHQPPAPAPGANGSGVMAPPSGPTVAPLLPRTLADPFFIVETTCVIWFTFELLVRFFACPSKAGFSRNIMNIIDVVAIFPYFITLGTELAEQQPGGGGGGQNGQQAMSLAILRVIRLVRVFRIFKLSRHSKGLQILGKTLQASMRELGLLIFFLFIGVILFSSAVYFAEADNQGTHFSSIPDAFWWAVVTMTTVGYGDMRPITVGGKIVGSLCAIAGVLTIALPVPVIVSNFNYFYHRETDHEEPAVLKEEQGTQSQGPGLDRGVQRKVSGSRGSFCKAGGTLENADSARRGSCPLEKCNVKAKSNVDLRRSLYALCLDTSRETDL

[19] = Plasma concentration in rat at 5 mg/kg, po measured after 30 mins; format: ADME, organism-based
[20] = target: T1, Potassium voltage-gated channel subfamily B member 1 (Homo sapiens, UniProt Q14721); test: Inhibition of human KV2.1 stably expressed in HEK293 cells by whole cell patch-clamp assay; format: cell-based
T1 sequence (Q14721 whole entry): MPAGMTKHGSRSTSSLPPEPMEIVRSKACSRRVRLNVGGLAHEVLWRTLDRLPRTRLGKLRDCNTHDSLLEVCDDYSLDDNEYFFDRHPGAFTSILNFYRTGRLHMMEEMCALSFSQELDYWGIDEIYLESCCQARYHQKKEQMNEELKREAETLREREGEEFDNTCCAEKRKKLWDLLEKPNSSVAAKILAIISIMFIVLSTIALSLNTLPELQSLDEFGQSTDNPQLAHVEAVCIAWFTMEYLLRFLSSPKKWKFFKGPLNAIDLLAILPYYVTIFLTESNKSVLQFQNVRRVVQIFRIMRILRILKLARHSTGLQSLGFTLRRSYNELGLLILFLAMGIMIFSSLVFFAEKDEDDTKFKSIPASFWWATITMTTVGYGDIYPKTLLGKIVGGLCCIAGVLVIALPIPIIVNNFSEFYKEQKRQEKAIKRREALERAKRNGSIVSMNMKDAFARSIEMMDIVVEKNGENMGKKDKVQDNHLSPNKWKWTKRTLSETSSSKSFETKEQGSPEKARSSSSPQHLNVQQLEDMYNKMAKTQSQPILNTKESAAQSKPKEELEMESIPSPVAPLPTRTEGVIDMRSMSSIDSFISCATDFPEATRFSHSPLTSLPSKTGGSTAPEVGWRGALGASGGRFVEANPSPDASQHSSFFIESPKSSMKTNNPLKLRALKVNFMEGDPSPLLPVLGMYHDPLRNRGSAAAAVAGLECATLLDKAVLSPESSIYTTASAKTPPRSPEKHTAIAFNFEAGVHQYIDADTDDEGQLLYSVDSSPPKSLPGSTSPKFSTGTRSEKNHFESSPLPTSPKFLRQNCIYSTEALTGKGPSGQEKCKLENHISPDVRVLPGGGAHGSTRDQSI

[21] = AUC (0 to infinity) in Sprague-Dawley rat at 0.5 mg/kg, iv measured upto 24 hrs by LC/MS/MS analysis; format: ADME, organism-based; conditions: in vivo
[22] = Cmax in Sprague-Dawley rat at 5 mg/kg, po measured upto 24 hrs by LC/MS/MS analysis; format: ADME, organism-based; conditions: in vivo
[23] = target: T2, Voltage-gated potassium channel KCNC1 (Homo sapiens, UniProt P48547); test: Inhibition of KV3.1 (unknown origin) by whole cell patch-clamp assay
T2 sequence (P48547 whole entry): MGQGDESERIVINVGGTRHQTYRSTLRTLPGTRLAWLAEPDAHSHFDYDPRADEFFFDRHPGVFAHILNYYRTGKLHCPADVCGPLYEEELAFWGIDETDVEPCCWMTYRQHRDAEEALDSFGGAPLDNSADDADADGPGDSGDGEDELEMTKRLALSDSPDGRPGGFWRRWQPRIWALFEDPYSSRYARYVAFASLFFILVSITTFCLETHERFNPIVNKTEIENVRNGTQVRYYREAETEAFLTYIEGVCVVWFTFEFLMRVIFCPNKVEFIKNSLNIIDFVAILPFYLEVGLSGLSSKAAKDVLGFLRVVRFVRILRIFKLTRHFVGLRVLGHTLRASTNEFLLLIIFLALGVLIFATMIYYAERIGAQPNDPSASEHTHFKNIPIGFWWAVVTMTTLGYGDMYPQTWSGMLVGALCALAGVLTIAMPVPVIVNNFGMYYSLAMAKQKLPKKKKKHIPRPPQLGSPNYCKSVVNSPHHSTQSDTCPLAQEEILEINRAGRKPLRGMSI

[24] = Brain concentration in rat at 1 mg/kg, iv measured after 30 mins; format: ADME, organism-based; conditions: read-out: Ct
[25] = Oral bioavailability in Sprague-Dawley rat at 5 mg/kg measured upto 24 hrs by LC/MS/MS analysis; format: ADME, organism-based; conditions: in vivo
[26] = Terminal elimination half life in Sprague-Dawley rat at 5 mg/kg, po measured upto 24 hrs by LC/MS/MS analysis; format: ADME, organism-based; conditions: in vivo, read-out: beta t1/2 (converted)
HEK293 [27] = test: Anti-apoptotic activity in HEK293 cells harbouring Kv2.1 assessed as viable cells at 0.3 uM by annexin-V and propidium staining based flow cytometry analysis (reference value: 99.8%); format: functional; conditions: Homo sapiens, read-out: Activity
[28] = AUC (0 to t) in Sprague-Dawley rat at 5 mg/kg, po measured upto 24 hrs by LC/MS/MS analysis; format: ADME, organism-based; conditions: in vivo

SMILES: CC[N+](CC)(CC)CC [TETRYLAMMONIUM]
viability at 10000 µM (HEK293 [1]): 58.4%

Cmax [2]: 693 ng/mL
concentration at 0.25 h [3]: 539 ng/mL
MRT inf [4]: 2.52 h
Tmax [5]: 0.65 h
concentration at 0.25 h [6]: 38.2 ng/g
clearance [7]: 48 mL/min/kg
AUC(0-inf) [9]: 355 ng·h/mL
MRT last at 24 h [10]: 2.05 h
Vd [11]: 2.1 L/kg
concentration at 0.5 h [13]: 235 ng/mL
AUC(0-t) at 24 h [14]: 174 ng·h/mL
concentration at 0.5 h [15]: 54.9 ng/g
half-life [16]: 0.51 h
MRT inf [17]: 1.39 h
IC50 [18]: 9.2 µM
concentration at 0.5 h [19]: 580 ng/mL
IC50 [20]: 0.07 µM
AUC(0-inf) [21]: 174 ng·h/mL
Cmax [22]: 147 ng/mL
IC50 [23]: > 30 µM
concentration at 0.5 h [24]: 14.6 ng/g
bioavailability [25]: 20.4%
half-life [26]: 1.89 h
AUC(0-t) at 24 h [28]: 337 ng·h/mL
SMILES: CCOc1ccc(NC(=O)C(C)C)cc1C(=O)NC(C)c1cccc(NC)c1 (stereo not drawn)
IC50 [8]: 30 µM
viability at 3 µM (HEK293 [12]): 55.4%
viability at 0.3 µM (HEK293 [27]): 62%
